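48-hour exposure; five concentrations; linearly interpolated endpoints. GI50 marks 50% less growth. Definition used: TGI = concentration required for complete inhibition of growth.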
Tests used:
Assay in all cases: growth of human tumour cells (NCI), 48 h
[1] = test system: SN12C renal
[2] = test system: K-562 leukemia
[3] = test system: OVCAR-4 ovarian
[4] = test system: SK-MEL-28 melanoma
[5] = test system: A549 NSCLC
[6] = test system: TK-10 renal
[7] = test system: SF-295 CNS
[8] = test system: ACHN renal

| Compound | GI50 [1] | TGI [1] | GI50 [2] | GI50 [3] [µM] | TGI [3] [µM] | GI50 [4] | TGI [4] | GI50 [5] | TGI [5] | GI50 [6] | TGI [6] | GI50 [7] | TGI [7] | GI50 [8] | TGI [8] | TGI [2] |
| --- | --- | --- | --- | --- | --- | --- | --- | --- | --- | --- | --- | --- | --- | --- | --- | --- |
| Nc1nc(N)c2c(n1)NC(c1ccccc1)C1CCc3ccccc3C1=N2 (configuration not stated) | 7.33 µM | 21.3 µM | 3.42 µM | 3.06 | 17.1 | 7.72 µM | 20.2 µM | 7.11 µM | 26 µM | 3.01 µM | 14.8 µM | 1.69 µM | 8.12 µM | 4.38 µM | 16.8 µM | – |
| COC(=O)/C=C1/SC(N2N=C(c3cccs3)CC2c2ccc(F)cc2)=NC1=O (configuration not stated) | 3.29 µM | 11 µM | – | 2.64 | 7.49 | 2.61 µM | 6 µM | 4.1 µM | 20.6 µM | 2.6 µM | 8.16 µM | 3.24 µM | 13.5 µM | 1.89 µM | 3.47 µM | – |
| C[n+]1c(-c2ccc(/C=N/NC(=O)c3ccc(C(=O)N/N=C/c4ccc(-c5cn6ccccc6[n+]5C)cc4)cc3)cc2)cn2ccccc21 | 213 µM | 493 µM | 132 µM | 623 | > 1000 | 258 µM | 406 µM | 176 µM | 314 µM | 228 µM | 374 µM | 290 µM | 944 µM | 752 µM | > 1000 µM | 259 µM |
| CCCCc1n(Cc2ccc3ccccc3c2)cc[n+]1Cc1ccc2ccccc2c1 | 1.09 µM | 2.43 µM | – | – | – | 1.32 µM | 2.69 µM | – | – | 1.37 µM | 2.76 µM | 1.3 µM | 2.65 µM | 1.97 µM | 4.19 µM | – |
| C=C(CC(=O)O)C(=O)O (tested in a mixture with another compound) | > 50 µg/mL | > 50 µg/mL | > 50 µg/mL | – | – | > 50 µg/mL | > 50 µg/mL | > 50 µg/mL | > 50 µg/mL | > 50 µg/mL | > 50 µg/mL | > 50 µg/mL | > 50 µg/mL | > 50 µg/mL | > 50 µg/mL | > 50 µg/mL |
| CCCCN(CCCC)CCC(O)c1cc2c(Cl)cc(Cl)cc2c2cc(C(F)(F)F)ccc12 (configuration not stated) | – | 20 µM | – | – | 28.5 | – | 33.1 µM | – | – | – | 27.6 µM | – | 25.4 µM | – | 25.6 µM | 22.4 µM |
| O=C1Nc2ccccc2/C1=C\c1nc(C2CCN(S(=O)(=O)c3ccc(F)cc3)CC2)n2ccccc12 | 3.05 µM | > 100 µM | > 100 µM | – | – | > 100 µM | > 100 µM | > 100 µM | > 100 µM | 2.41 µM | 8.62 µM | 2.25 µM | 11.2 µM | 4.07 µM | > 100 µM | > 100 µM |
| NCCOc1ccccc1/C=C1\c2ccccc2-c2ccc([N+](=O)[O-])cc21 | 1.41 µM | 2.82 µM | – | 1.79 | 3.27 | 1.75 µM | 3.18 µM | – | – | – | – | 1.7 µM | 3.18 µM | 1.38 µM | 2.69 µM | – |
| Cc1ccc(C2=C(c3ccccc3)C(c3ccccc3)Oc3ccc(C)cc32)cc1 (configuration not stated) | 17.3 µM | 34.3 µM | 8.29 µM | 2.27 | 7.44 | – | – | 3.87 µM | 10.7 µM | 13.7 µM | 32.4 µM | 3.66 µM | 13.8 µM | 16.6 µM | 31.2 µM | 42.7 µM |
| Oc1ccc(CCNCc2cc3c(cc2Br)OCO3)cc1 | – | > 100 µM | – | – | – | – | 98.2 µM | – | > 100 µM | – | > 100 µM | – | > 100 µM | – | > 100 µM | > 100 µM |
| Cc1ccn2c(CCc3nnc4cc(C)ccn34)nnc2c1 | – | > 100 µM | – | – | > 100 | – | > 100 µM | – | > 100 µM | – | > 100 µM | – | > 100 µM | – | > 100 µM | – |
| Cc1cc(N2CCCC2)nc(NCc2cc(Nc3ccnc4cc(Cl)ccc34)ccc2F)n1 | – | – | – | – | – | 1.78 µM | 3.48 µM | 1.71 µM | 3.47 µM | 2.14 µM | 3.72 µM | 1.16 µM | 2.53 µM | 1.53 µM | 3.06 µM | – |
| COc1cc(-c2cc(/C=C/C(=O)c3ccc(Cl)c(Cl)c3)[nH]n2)cc(OC)c1OC | 13.7 µM | > 100 µM | 4.96 µM | 10.8 | 50.9 | 18.1 µM | 66 µM | 18.7 µM | > 100 µM | 8.34 µM | 43.2 µM | – | – | 21.4 µM | > 100 µM | 64.4 µM |
| COc1ccc2c(Cl)cc(NC(=O)Nc3c(C)cccc3C)nc2c1 | 15.6 µM | > 100 µM | 60.7 µM | – | – | 31 µM | > 100 µM | 6.1 µM | 69.4 µM | 11.2 µM | 58.2 µM | 4.31 µM | 43.9 µM | 3.59 µM | 24.7 µM | > 100 µM |
| CC(/C=C/c1ccccc1)=N\NC(N)=S | – | > 100 µM | – | – | – | – | > 100 µM | – | > 100 µM | – | > 100 µM | – | 61.2 µM | – | > 100 µM | – |

— PubChem BioAssay (NCI)
